Results from PubChem BioAssay AID1918933 (Molecular Pharmacology Branch, DTP, NCI, 2023).
“And” between values parts separate entries of the source, which are not always exact repeats. Identical values can stand only once.

Tested on: 186277-243-T-J2-PDC complex spheroid viability
Assay: Anticancer human tumor 186277-243-T-J2-PDC patient-derived colon adenocarcinoma cell line growth inhibition
Details: for viability, T/C: stronger effect = lower value; active = viability on the fitted dose curve at most 10% of control; inactive = the rest
Summary of the method: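 Drug combinations with the LSD1 inhibitor iadademstat tested on tumor cells co-cultured as spheroids with endothelial cells and mesenchymal stem cells. Concentrations descended in half-log increments from clinical Cmax or 10 microM.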

[1] = curve of first compound, second compound 0.1 µM
[2] = curve of first compound, second compound 0.316 µM
[3] = curve of first compound, second compound 1 µM
[4] = curve of first compound, second compound 3.16 µM
[5] = curve of first compound, second compound 10 µM
[6] = second compound 0.1 µM, first compound 0.00316 µM
[7] = second compound 0.1 µM, first compound 0.01 µM
[8] = second compound 0.1 µM, first compound 0.0316 µM
[9] = second compound 0.1 µM, first compound 0.1 µM
[10] = second compound 0.1 µM, first compound 0.316 µM
[11] = second compound 0.1 µM, first compound 1 µM
[12] = second compound 0.316 µM, first compound 0.00316 µM
[13] = second compound 0.316 µM, first compound 0.01 µM
[14] = second compound 0.316 µM, first compound 0.0316 µM
[15] = second compound 0.316 µM, first compound 0.1 µM
[16] = second compound 0.316 µM, first compound 0.316 µM
[17] = second compound 0.316 µM, first compound 1 µM
[18] = second compound 1 µM, first compound 0.00316 µM
[19] = second compound 1 µM, first compound 0.01 µM
[20] = second compound 1 µM, first compound 0.0316 µM
[21] = second compound 1 µM, first compound 0.1 µM
[22] = second compound 1 µM, first compound 0.316 µM
[23] = second compound 1 µM, first compound 1 µM
[24] = second compound 3.16 µM, first compound 0.00316 µM
[25] = second compound 3.16 µM, first compound 0.01 µM
[26] = second compound 3.16 µM, first compound 0.0316 µM
[27] = second compound 3.16 µM, first compound 0.1 µM
[28] = second compound 3.16 µM, first compound 0.316 µM
[29] = second compound 3.16 µM, first compound 1 µM
[30] = second compound 10 µM, first compound 0.00316 µM
[31] = second compound 10 µM, first compound 0.01 µM
[32] = second compound 10 µM, first compound 0.0316 µM
[33] = second compound 10 µM, first compound 0.1 µM
[34] = second compound 10 µM, first compound 0.316 µM
[35] = second compound 10 µM, first compound 1 µM
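Note: 7 day exposure to compounds.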
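Throughout, for viability, T/C: 100% = DMSO vehicle control viability.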

Nc1ncn(C2CC(O)C(CO)O2)c(=O)n1 (centres undefined) + NC1CC1c1ccc(-c2cccc(O)c2)cc1
inactive: viability, T/C [6] 108% | viability, T/C [7] 103% | viability, T/C [8] 112% | viability, T/C [9] 106% | viability, T/C [10] 148% | viability, T/C [11] 159% | viability, T/C [12] 100% | viability, T/C [13] 102% | viability, T/C [14] 114% | viability, T/C [15] 138% | viability, T/C [16] 143% | viability, T/C [17] 150% | viability, T/C [18] 104% | viability, T/C [19] 109% | viability, T/C [20] 107% | viability, T/C [21] 119% | viability, T/C [22] 137% | viability, T/C [23] 157% | viability, T/C [24] 100% | viability, T/C [25] 95.5% | viability, T/C [26] 97.3% | viability, T/C [27] 121% | viability, T/C [28] 140% | viability, T/C [29] 162% | viability, T/C [30] 110% | viability, T/C [31] 107% | viability, T/C [32] 98.6% | viability, T/C [33] 112% | viability, T/C [34] 124% | viability, T/C [35] 148%
> 1000 nM: IC50 [1] | IC50 [2] | IC50 [3] | IC50 [4] | IC50 [5]

O=C(c1cc(Cc2n[nH]c(=O)c3ccccc23)ccc1F)N1CCN(C(=O)C2CC2)CC1 + NC1CCC(NC2CC2c2ccccc2)CC1
inactive: viability, T/C [8] 121% | viability, T/C [9] 121% | viability, T/C [10] 117% | viability, T/C [11] 123% | viability, T/C (second compound 0.1 µM, first compound 3.16 µM) 121% | viability, T/C (second compound 0.1 µM, first compound 10 µM) 94% | viability, T/C [14] 119% | viability, T/C [15] 114% | viability, T/C [16] 117% | viability, T/C [17] 113% | viability, T/C (second compound 0.316 µM, first compound 3.16 µM) 127% | viability, T/C (second compound 0.316 µM, first compound 10 µM) 84.1% | viability, T/C [20] 111% | viability, T/C [21] 112% | viability, T/C [22] 122% | viability, T/C [23] 123% | viability, T/C (second compound 1 µM, first compound 3.16 µM) 121% | viability, T/C (second compound 1 µM, first compound 10 µM) 79.1% | viability, T/C [26] 120% | viability, T/C [27] 120% | viability, T/C [28] 119% | viability, T/C [29] 132% | viability, T/C (second compound 3.16 µM, first compound 3.16 µM) 124% | viability, T/C (second compound 3.16 µM, first compound 10 µM) 80.5% | viability, T/C [32] 111% | viability, T/C [33] 109% | viability, T/C [34] 114% | viability, T/C [35] 134% | viability, T/C (second compound 10 µM, first compound 3.16 µM) 109% | viability, T/C (second compound 10 µM, first compound 10 µM) 69.9%
> 10000 nM: IC50 [1] | IC50 [2] | IC50 [3] | IC50 [4] | IC50 [5]

Nc1ncn(C2CC(O)C(CO)O2)c(=O)n1 (centres undefined) + NC1CCC(NC2CC2c2ccccc2)CC1
inactive: viability, T/C [6] 97.6% | viability, T/C [7] 110% | viability, T/C [8] 98.2% | viability, T/C [9] 129% | viability, T/C [10] 139% | viability, T/C [11] 142% | viability, T/C [12] 95.9% | viability, T/C [13] 111% | viability, T/C [14] 107% | viability, T/C [15] 127% | viability, T/C [16] 141% | viability, T/C [17] 138% | viability, T/C [18] 102% | viability, T/C [19] 119% | viability, T/C [20] 111% | viability, T/C [21] 130% | viability, T/C [22] 127% | viability, T/C [23] 135% | viability, T/C [24] 101% | viability, T/C [25] 108% | viability, T/C [26] 112% | viability, T/C [27] 137% | viability, T/C [28] 151% | viability, T/C [29] 138% | viability, T/C [30] 113% | viability, T/C [31] 105% | viability, T/C [32] 116% | viability, T/C [33] 140% | viability, T/C [34] 140% | viability, T/C [35] 132%
> 1000 nM: IC50 [1] | IC50 [2] | IC50 [3] | IC50 [4] | IC50 [5]

COc1cc(Nc2ncc3c(n2)-c2ccc(Cl)cc2C(c2c(F)cccc2OC)=NC3)ccc1C(=O)O + NC1CC1c1ccc(-c2cccc(O)c2)cc1
> 1000 nM: IC50 [1] | IC50 [2] | IC50 [3] | IC50 [4] | IC50 [5]
inactive: viability, T/C [6] 128% | viability, T/C [7] 115% | viability, T/C [8] 116% | viability, T/C [9] 107% | viability, T/C [10] 124% | viability, T/C [11] 111% | viability, T/C [12] 133% | viability, T/C [13] 125% | viability, T/C [14] 119% | viability, T/C [15] 108% | viability, T/C [16] 124% | viability, T/C [17] 109% | viability, T/C [18] 140% | viability, T/C [19] 132% | viability, T/C [20] 130% | viability, T/C [21] 117% | viability, T/C [22] 131% | viability, T/C [23] 114% | viability, T/C [24] 155% | viability, T/C [25] 143% | viability, T/C [26] 143% | viability, T/C [27] 126% | viability, T/C [28] 128% | viability, T/C [29] 111% | viability, T/C [30] 137% | viability, T/C [31] 139% | viability, T/C [32] 130% | viability, T/C [33] 123% | viability, T/C [34] 120% | viability, T/C [35] 89.8%

Nc1ccccc1NC(=O)c1ccc(CNC(=O)OCc2cccnc2)cc1
14.5% and 1.27%: viability, T/C (compound 3 µM)
inactive: viability, T/C (compound 0.00949 µM) 99.8% and 104% | viability, T/C (compound 0.03 µM) 99.2% and 98.5% | viability, T/C (compound 0.0949 µM) 102% and 106% | viability, T/C (compound 0.3 µM) 88.2% and 103% | viability, T/C (compound 0.949 µM) 64.4% and 20.6%
1310 nM and 628 nM: IC50 (curve of compound)

CCN(c1cc(-c2ccc(CN3CCOCC3)cc2)cc(C(=O)NCc2c(C)cc(C)[nH]c2=O)c1C)C1CCOCC1 + NC1CC1c1ccc(-c2cccc(O)c2)cc1
2190 nM: IC50 [3]
inactive: viability, T/C (second compound 0.1 µM, first compound 0.00949 µM) 92% | viability, T/C (second compound 0.1 µM, first compound 0.03 µM) 113% | viability, T/C (second compound 0.1 µM, first compound 0.0949 µM) 113% | viability, T/C (second compound 0.1 µM, first compound 0.3 µM) 112% | viability, T/C (second compound 0.1 µM, first compound 0.949 µM) 123% | viability, T/C (second compound 0.1 µM, first compound 3 µM) 28.4% | viability, T/C (second compound 0.316 µM, first compound 0.00949 µM) 107% | viability, T/C (second compound 0.316 µM, first compound 0.03 µM) 113% | viability, T/C (second compound 0.316 µM, first compound 0.0949 µM) 129% | viability, T/C (second compound 0.316 µM, first compound 0.3 µM) 120% | viability, T/C (second compound 0.316 µM, first compound 0.949 µM) 120% | viability, T/C (second compound 0.316 µM, first compound 3 µM) 28.6% | viability, T/C (second compound 1 µM, first compound 0.00949 µM) 104% | viability, T/C (second compound 1 µM, first compound 0.03 µM) 111% | viability, T/C (second compound 1 µM, first compound 0.0949 µM) 121% | viability, T/C (second compound 1 µM, first compound 0.3 µM) 116% | viability, T/C (second compound 1 µM, first compound 0.949 µM) 120% | viability, T/C (second compound 1 µM, first compound 3 µM) 25.8% | viability, T/C (second compound 3.16 µM, first compound 0.00949 µM) 106% | viability, T/C (second compound 3.16 µM, first compound 0.03 µM) 113% | viability, T/C (second compound 3.16 µM, first compound 0.0949 µM) 111% | viability, T/C (second compound 3.16 µM, first compound 0.3 µM) 108% | viability, T/C (second compound 3.16 µM, first compound 0.949 µM) 124% | viability, T/C (second compound 3.16 µM, first compound 3 µM) 27.8% | viability, T/C (second compound 10 µM, first compound 0.00949 µM) 100% | viability, T/C (second compound 10 µM, first compound 0.03 µM) 99.7% | viability, T/C (second compound 10 µM, first compound 0.0949 µM) 88.4% | viability, T/C (second compound 10 µM, first compound 0.3 µM) 107% | viability, T/C (second compound 10 µM, first compound 0.949 µM) 103% | viability, T/C (second compound 10 µM, first compound 3 µM) 23.5%
2280 nM: IC50 [2]
2010 nM: IC50 [5]
2220 nM: IC50 [1] | IC50 [4]

CC(C)CC(NC(=O)CNC(=O)c1cc(Cl)ccc1Cl)B1OC(=O)CC(CC(=O)O)(C(=O)O)O1 (centres undefined)
14.8% and 2.68%: viability, T/C (compound 0.0316 µM)
inactive: viability, T/C (compound 0.000316 µM) 99.8% and 95.4% | viability, T/C (compound 0.001 µM) 99.4% and 103% | viability, T/C (compound 0.00316 µM) 101% and 94.2% | viability, T/C (compound 0.01 µM) 70.7% and 51.2%
15.3 nM and 10.2 nM: IC50 (curve of compound)
active: viability, T/C (compound 0.1 µM) 6.24% and 0.35%
